The values that follow come from patent US20130303533A1, “AZOLOPYRIDINE AND AZOLOPYRIMIDINE COMPOUNDS AND METHODS OF USE THEREOF” (AMBIT BIOSCIENCES CORPORATION, priority 2010, published 2013).

A value given as a limit tells only on which side of the number the result lay.

The target of experiment [1] is T1, TYK2 (Homo sapiens, UniProt P29597).
T1 construct: made in house; host or cells: T7 phage display or HEK-293 cells (alternatives)
Nature of the experiment: Competition binding assay to determine binding constants (Kd), TYK2.

Experiment [2] deals with T2, JAK2 (Homo sapiens, UniProt O60674).
T2 construct: made in house; host or cells: T7 phage display or HEK-293 cells (alternatives)
T2 sequence (O60674 whole entry): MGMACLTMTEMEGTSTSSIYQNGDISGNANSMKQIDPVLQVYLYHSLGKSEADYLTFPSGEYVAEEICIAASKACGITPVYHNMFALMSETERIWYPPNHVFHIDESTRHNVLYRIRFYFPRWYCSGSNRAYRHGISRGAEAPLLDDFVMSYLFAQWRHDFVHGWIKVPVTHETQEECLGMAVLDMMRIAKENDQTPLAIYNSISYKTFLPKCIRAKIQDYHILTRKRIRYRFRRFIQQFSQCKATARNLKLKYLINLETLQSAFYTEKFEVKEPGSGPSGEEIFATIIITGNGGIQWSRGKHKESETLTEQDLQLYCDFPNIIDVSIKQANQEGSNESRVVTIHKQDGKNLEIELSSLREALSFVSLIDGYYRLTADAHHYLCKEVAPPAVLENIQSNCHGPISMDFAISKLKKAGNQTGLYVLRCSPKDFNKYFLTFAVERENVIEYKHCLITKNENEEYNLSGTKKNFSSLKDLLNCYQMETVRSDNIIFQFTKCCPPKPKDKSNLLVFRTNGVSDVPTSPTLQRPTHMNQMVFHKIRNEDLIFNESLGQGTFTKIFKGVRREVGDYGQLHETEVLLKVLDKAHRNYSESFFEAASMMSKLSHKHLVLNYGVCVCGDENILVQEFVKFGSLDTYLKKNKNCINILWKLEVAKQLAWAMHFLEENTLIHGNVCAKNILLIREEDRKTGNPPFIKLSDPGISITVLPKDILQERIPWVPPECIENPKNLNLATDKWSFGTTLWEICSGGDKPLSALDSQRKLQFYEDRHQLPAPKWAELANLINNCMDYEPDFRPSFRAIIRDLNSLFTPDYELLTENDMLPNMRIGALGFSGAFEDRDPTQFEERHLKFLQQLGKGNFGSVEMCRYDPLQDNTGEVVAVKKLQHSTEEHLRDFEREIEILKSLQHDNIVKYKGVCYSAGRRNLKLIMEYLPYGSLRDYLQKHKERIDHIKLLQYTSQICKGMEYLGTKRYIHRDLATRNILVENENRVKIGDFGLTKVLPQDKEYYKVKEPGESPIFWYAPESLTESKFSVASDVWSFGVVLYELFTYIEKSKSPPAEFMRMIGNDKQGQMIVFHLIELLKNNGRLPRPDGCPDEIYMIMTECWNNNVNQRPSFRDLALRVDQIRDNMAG
Kind of experiment: Competition binding assay to determine binding constants (Kd), JAK2.

Experiment [3] deals with T3, JAK3 (Homo sapiens, UniProt P52333).
T3 construct: made in house; host or cells: T7 phage display or HEK-293 cells (alternatives)
T3 sequence (P52333 1-1124): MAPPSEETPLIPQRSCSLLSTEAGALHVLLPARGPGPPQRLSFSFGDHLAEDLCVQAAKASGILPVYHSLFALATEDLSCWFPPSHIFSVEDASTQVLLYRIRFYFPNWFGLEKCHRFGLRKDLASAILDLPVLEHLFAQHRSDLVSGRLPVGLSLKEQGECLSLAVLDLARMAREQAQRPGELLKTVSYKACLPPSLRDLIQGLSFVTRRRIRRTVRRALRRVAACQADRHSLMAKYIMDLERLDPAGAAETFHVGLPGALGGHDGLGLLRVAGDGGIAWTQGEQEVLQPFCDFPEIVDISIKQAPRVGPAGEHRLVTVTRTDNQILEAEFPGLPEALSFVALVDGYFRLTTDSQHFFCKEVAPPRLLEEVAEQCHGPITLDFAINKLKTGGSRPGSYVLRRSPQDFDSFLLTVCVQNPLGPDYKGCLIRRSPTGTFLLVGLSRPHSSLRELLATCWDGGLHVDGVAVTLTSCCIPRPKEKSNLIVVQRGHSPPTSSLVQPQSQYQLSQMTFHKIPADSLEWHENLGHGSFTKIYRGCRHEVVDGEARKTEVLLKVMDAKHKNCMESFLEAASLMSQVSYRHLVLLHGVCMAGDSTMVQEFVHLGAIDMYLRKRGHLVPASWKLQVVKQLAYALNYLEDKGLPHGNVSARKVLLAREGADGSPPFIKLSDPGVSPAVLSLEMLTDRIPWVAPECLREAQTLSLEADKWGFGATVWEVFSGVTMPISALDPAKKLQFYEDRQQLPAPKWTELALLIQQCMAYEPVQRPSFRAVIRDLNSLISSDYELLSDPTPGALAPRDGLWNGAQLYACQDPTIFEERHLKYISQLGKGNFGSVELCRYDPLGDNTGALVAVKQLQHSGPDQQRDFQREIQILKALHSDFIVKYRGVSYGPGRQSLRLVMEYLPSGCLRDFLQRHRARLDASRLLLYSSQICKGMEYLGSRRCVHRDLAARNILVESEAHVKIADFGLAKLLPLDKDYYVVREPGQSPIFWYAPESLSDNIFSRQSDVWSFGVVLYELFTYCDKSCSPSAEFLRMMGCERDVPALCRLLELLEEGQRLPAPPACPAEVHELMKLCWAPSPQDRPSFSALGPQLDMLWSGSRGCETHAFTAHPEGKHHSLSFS
Kind of experiment: Competition binding assay to determine binding constants (Kd), JAK3.

Experiment [4] deals with GM-CSFR/JAK2/STAT5 pathway. Kind of experiment: CSTF-1 cell-based reporter assay. The following applies: Homo sapiens; csTF-1 cells, GM-CSF at 2 ng/mL, 4 hours, beta-lactamase reporter; read-out: Cell Assay: CS TF-1 reporter assay IC50.

T1 sequence (P29597 whole entry): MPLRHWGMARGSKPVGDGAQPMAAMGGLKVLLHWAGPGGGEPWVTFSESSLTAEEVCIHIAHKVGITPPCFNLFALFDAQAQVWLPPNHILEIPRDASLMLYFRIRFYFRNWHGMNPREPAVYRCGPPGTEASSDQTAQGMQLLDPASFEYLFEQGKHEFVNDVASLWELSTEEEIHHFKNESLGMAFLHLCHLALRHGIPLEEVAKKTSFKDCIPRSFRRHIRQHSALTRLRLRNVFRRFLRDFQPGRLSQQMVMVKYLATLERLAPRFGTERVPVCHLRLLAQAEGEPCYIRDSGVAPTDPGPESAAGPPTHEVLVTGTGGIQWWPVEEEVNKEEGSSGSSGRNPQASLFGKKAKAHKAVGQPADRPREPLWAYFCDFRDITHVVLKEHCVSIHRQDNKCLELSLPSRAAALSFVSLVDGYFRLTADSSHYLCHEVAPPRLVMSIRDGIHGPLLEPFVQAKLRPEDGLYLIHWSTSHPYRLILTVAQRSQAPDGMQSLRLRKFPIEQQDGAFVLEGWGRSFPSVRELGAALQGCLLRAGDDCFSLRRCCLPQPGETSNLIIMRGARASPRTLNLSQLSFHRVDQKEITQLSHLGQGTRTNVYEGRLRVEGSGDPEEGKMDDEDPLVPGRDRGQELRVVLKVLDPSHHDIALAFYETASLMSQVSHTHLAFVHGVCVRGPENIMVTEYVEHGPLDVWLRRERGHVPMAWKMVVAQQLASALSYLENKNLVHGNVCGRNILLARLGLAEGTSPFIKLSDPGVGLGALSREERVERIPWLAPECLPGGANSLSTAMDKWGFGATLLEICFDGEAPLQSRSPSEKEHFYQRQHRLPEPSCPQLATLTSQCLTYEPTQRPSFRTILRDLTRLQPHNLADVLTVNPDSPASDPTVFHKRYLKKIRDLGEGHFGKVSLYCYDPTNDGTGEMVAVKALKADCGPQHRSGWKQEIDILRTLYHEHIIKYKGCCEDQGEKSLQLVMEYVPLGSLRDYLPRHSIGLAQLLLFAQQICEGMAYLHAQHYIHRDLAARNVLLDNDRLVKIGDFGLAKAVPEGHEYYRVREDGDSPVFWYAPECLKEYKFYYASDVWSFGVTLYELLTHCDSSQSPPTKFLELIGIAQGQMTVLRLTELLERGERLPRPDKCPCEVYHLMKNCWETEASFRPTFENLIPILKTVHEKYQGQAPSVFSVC

With `COc1nc2nc(C(F)(F)c3ccc(F)cc3)nc(Nc3cc(C)[nH]n3)c2s1` [Example 39, 5-(difluoro(4-fluorophenyl)methyl)-2-methoxy-N-(5-methyl-1H-pyrazol-3-yl)thiazolo[4,5-d]pyrimidin-7-amine], the Kd (commonly the free concentration of one partner at which half of the binding sites on the other are occupied at equilibrium, for simple one-to-one binding) is not above 10 nM in experiment [1], 1 to 10 nM in experiment [2] and 10 to 100 nM in experiment [3]. Moreover, the IC50 – broadly, the concentration that gives 50% inhibition – in experiment [4] lay within 100 to 500 nM.
Take `Cc1cc(Nc2nc(C(F)(F)c3ccc(F)cc3)nc3nc(C#N)sc23)n[nH]1` [Example 40, 5-(difluoro(4-fluorophenyl)methyl)-7-(5-methyl-1H-pyrazol-3-ylamino)thiazolo[4,5-d]pyrimidine-2-carbonitrile]: the Kd in experiment [1] was not above 10 nM; in experiment [2], 1 to 10 nM; in experiment [3], 10 to 100 nM. Further, the IC50 in experiment [4] was more than 500 nM.
As to `Cc1cc(Nc2nc(C(F)(F)c3ccc(F)cc3)nc3ncsc23)n[nH]1` [Example 41, 5-(difluoro(4-fluorophenyl)methyl)-N-(5-methyl-1H-pyrazol-3-yl)thiazolo[4,5-d]pyrimidin-7-amine], the Kd in experiment [1] is not above 10 nM; in experiment [2], 1 to 10 nM; in experiment [3], 10 to 100 nM. Besides, the IC50 in experiment [4] is 100 to 500 nM.
In the case of `CNc1nc2nc(C(F)(F)c3ccc(F)cc3)nc(Nc3cc(C)[nH]n3)c2s1` [Example 42, 5-(difluoro(4-fluorophenyl)methyl)-N2-methyl-N7-(5-methyl-1H-pyrazol-3-yl)thiazolo[4,5-d]pyrimidine-2,7-diamine], the results for the Kd in experiment [1], in experiment [2] and in experiment [3] were not above 10 nM, 1 to 10 nM and not above 10 nM, respectively. In addition, the IC50 in experiment [4] was in the range of 100 to 500 nM.
Turning to `CCn1ncc2c(Nc3cc(C)[nH]n3)nc(Sc3ccc(F)cc3)nc21` [Example 43, 1-ethyl-6-((4-fluorophenyl)thio)-N-(5-methyl-1H-pyrazol-3-yl)-1H-pyrazolo[3,4-d]pyrimidin-4-amine], the values for the Kd in experiment [1], in experiment [2] and in experiment [3] were 10 to 100 nM, more than 10 nM and more than 100 nM, respectively. Further, in experiment [4], the IC50 lay within 100 to 500 nM.
In the same order, the values of `Cc1cc(Nc2nc(C(F)(F)c3ccc(F)cn3)nc3nn(C4CCCC4)cc23)n[nH]1` [Example 44, 2-cyclopentyl-6-(difluoro(5-fluoropyridin-2-yl)methyl)-N-(5-methyl-1H-pyrazol-3-yl)-2H-pyrazolo[3,4-d]pyrimidin-4-amine] are not above 10 nM, not above 1 nM, not above 10 nM and not above 100 nM.
